Earlier results in patent publication US9738620B2, “Trientine prodrugs, pharmaceutical compositions thereof, and methods of use” (priority 2015, dated 2017).

Settings: Lu., Molecular Cancer Therapeutics. 2010, 9 (9), 2458-67

NCCNCCNCCN [Trientine]
oral bioavailability: 8-30%
